Test results: patent US4927826A, “Cycloproylpropenamides useful as platelet activing factor (PAF) antagonists” (Hoffman-La Roche Inc., priority 1988, dated 1990)

Legend:
dog platelets = assay: Binding assay: inhibition of 3H-PAF binding to dog platelets; settings: 10 minutes at room temperature
Protocol: The binding assay was done in 400 μl polyethylene microcentrifuge tubes (Beckman) containing 50 μl of an oil mixture of 2 parts Siliconol AR200 (Serva): 1 part Silicone Fluid (Arthur H. Thomas). Buffer, standards, or analogs (150 μl total volume) were added to the tubes. Radiolabelled ^3 H-PAF (50 μl) was then added to the tubes. The reaction was started by the addition of 50 μl of dog platelets (2×10^7 platelets). The tubes were capped, inverted several times to mix, and incubated for 10 minutes at room temperature. The platelets were separated from the incubation mixture by centrifuging 1 minute in a Beckman Microfuge B centrifuge. The tip of the microfuge tube was cut off, and the platelets were washed out of the tip with 200 μl of 50% methanol (Burdick and Jackson). Aquasol (NEN, 10 ml) was added and the radioactivity in the samples was determined using an LS 8100 Beckman liquid scintillation counter linked to a Techtran tape recorder. Data was processed through an in-house computer system. Alternatively, radioactivity was determined using a Searle Mark III liquid scintillation counter linked to a Iso-Data microprocessor.
(b) Preparation of Platelets
Blood was collected from anesthesized or unanesthesized dogs into 50 ml plastic centrifuge tubes containing 3.8% sodium citrate as the anticoagulant (1 volume of citrate/9 volumes of blood). The red cells were removed by centrifugation for 15 minutes at 600 rpm (100-125 g) at room temperature. An aliquot of the supernatant platelet rich plasma (PRP) was saved for cell counting and the remainder was acidified by pH 6.5 with 0.15M citric acid. The platelet pellet was obtained after a 10 minute centrifugation at 2000 rpm (1000 g) at room temperature. Washed platelets were prepared by resuspending the platelet pellet once with PBS containing 1 mM EDTA, centrifuging as noted, and then resuspending the platelets in 0.1% BSA-PBS. An aliquot of the washed platelets was counted. Platelets used for binding assays were diluted to 2×10^7 platelets/assay tube (4×10^8 platelets/ml). Platelet counting was done using a Royco Cell-Crit 921.

[1] = test system: PAF-induced Platelet Count Decrease; assay: PAF induced platelet count decrease; type: in vivo, guinea pig; settings: for Percent Inhib. of PAF-induced Platelet Count Decrease, 3 mg/Kg i.v.: guinea pig, 15 minutes after drug injection, PAF 75 ng/kg i.v.
Protocol: PAF INDUCED PLATELET COUNT DECREASE
Male Hartley guinea pigs weighing between 500 and 900 grams were fed standard guinea pig chow and tap water ad libitum. PAF was solubilized in ethanol and stored as a 2 mM stock solution at -70° C. The stock solution of PAF was diluted to 1 pM in Tris buffer pH 7.4 and 0.1% BSA for all experiments.
(a) Intravenous Procedure
Guinea pigs were anesthetized with urethane (1.6 g/kg, i.p.). A catheter (PE50) was introduced into the right carotid artery for withdrawing blood. A second catheter PE10) was introduced into the jugular vein for injecting drugs and for administering the PAF challenge (75 ng/kg, i.v.). A control blood sample was obtained and platelets were counted in a whole blood platelet analyzer. PAF was then given and blood samples were taken 15, 30, and 60 seconds after the challenge for platelet counts. Fifteen minutes later, selected concentrations of the test compound were solubilized in DMSO and injected intravenously into a group of 4-6 animals. Only one concentration of antagonist was used in each animal group. Fifteen minutes after drug injection, blood samples were taken before and 15, 30, and 60 sec after the PAF challenge, and analyzed for platelet number.
Animals were anesthetized with sodium pentobarbital (35 mg/kg, i.p.) and the caritoid artery and jugular vein were cannulated as described above. The cannulae were exteriorized at the base of the neck and the animals were allowed to recover. At least 18 hours after surgery, conscious unrestrained guinea pigs were used in the experiment. The animals were challenged two time with PAF (120 ng/kg, i.v.); the first to establish a consistent response to PAF and the second to serve as a control for the PAF challenge. Blood samples were taken before and 15, 30, and 45 seconds after PAF challenge and platelets were counted. Thirty minutes after the control PAF challenge, the animal were orally dosed with either gum acacia or the test compound. Animals were then challenged with PAF at 1, 3, 5, and 24 hours after the administration of the drug.
DATA ANALYSIS AND STATISTICS
The % change, i.e., the difference in platelet number before and after PAF challenge was calculated by: [formula]
Statistical significance (p 0.05) of the difference between the mean PAF control and mean drug treated activity was determined with paried Student's t-test.

[2] = test system: PAF-induced Bronchoconstriction; assay: PAF Induced Bronchoconstriction Assay; type: in vivo; settings: guinea pig, ± standard error of the mean; for Percent Inhib. of PAF-induced Bronchoconstriction, 1 mg/Kg i.v.: 1 minute pretreatment, PAF 1.0 μg/kg i.v.; for Percent Inhib. of PAF-induced Bronchoconstriction, 50 mg/Kg p.o.: 2-hour pretreatment, PAF i.v.
Protocol: PAF Induced Bronchoconstriction Assay
Male animals (Hartlet Strain, 400-500 g) were anesthetized with urethane (2 g/kg, i.p.). Each animals' trachea was cannulated and the guinea pigs were respirated using a Harvard small animal rodent respirator (3.0 cc stroke volume, 40 breaths per min.). Tracheal pressure was recorded from a cannula inserted in the trachea and connected to a Statham Pressure Transducer.
The jugular vein was cannulated for administering compounds. Spontaneous breathing was arrested with succinylcholine (1.2 mg/kg, i.v.) administered 2 minutes prior to intravenous injection of platelet activating factor (PAF).
For, the intravenous testing, the guinea pig is given a 5-minute pretreatment with propranolol at a dose of 0.1 mg/kg intravenously. The test compound is administered with a 1 minute pretreatment prior to intravenous challenge with PAF. The animal is then challenged with a 1.0 μg/kg intravenous dose of PAF and the change is tracheal pressure is measured.
For the oral testing, the procedure includes a 2-hour pretreatment period with the test compound administered through an oral gavage tube. Propranolol or succinylcholine and PAF are administered intravenously, and the change in tracheal pressure measured.
The change is tracheal pressure is determined by subtracting the steady state baseline achieved after administration of succinylcholine from the peak bronchoconstriction seen after challenge with PAF. The mean is calculated for each test compound and compared to the mean of the control animals to give the percent inhibition of bronchoconstriction. The standard error is calculated as the standard error of the mean.

O=C(/C=C/C1CC1(c1cccc(F)c1)c1cccc(F)c1)NCCCCc1cccnc1 (racemic) [[R,S-(E)]-3-[2,2-bis(3-Fluorophenyl)cyclopropyl]-N-[4-(3-pyridinyl)butyl]-2-propenamide]
IC50 (dog platelets): 0.053 µM
Percent Inhib. of PAF-induced Platelet Count Decrease, 3 mg/Kg i.v. [1]: 30%
Percent Inhib. of PAF-induced Bronchoconstriction, 1 mg/Kg i.v. [2]: 96 ± 2%

O=C(/C=C\C1CC1(c1cccc(F)c1)c1cccc(F)c1)NCCCCc1cccnc1 (racemic) [[R,S-(Z)]-3-[2,2-bis(3-Fluorophenyl)cyclopropyl]-N-[4-(3-pyridinyl)butyl]-2-propenamide]
IC50 (dog platelets): 0.1 µM
Percent Inhib. of PAF-induced Platelet Count Decrease, 3 mg/Kg i.v. [1]: 22%
Percent Inhib. of PAF-induced Bronchoconstriction, 50 mg/Kg p.o. [2]: 52 ± 28%

O=C(/C=C/[C@H]1CC1(c1ccc(F)cc1)c1ccc(F)cc1)NCCCCc1cccnc1 [[R-(E)]-3-[2,2-bis(4-Fluorophenyl)cyclopropyl]-N-[4-(3-pyridinyl)butyl]-2-propenamide]
IC50 (dog platelets): 0.2 µM
Percent Inhib. of PAF-induced Bronchoconstriction, 1 mg/Kg i.v. [2]: 13 ± 11%
Percent Inhib. of PAF-induced Bronchoconstriction, 50 mg/Kg p.o. [2]: 83 ± 31%

O=C(/C=C/[C@@H]1CC1(c1ccccc1)c1ccccc1)NCCCCc1cccnc1 [[S-(E)]-3-(2,2-Diphenylcyclopropyl)-N-[4-(3-pyridinyl)butyl]-2-propenamide]
IC50 (dog platelets): 0.035 µM
Percent Inhib. of PAF-induced Platelet Count Decrease, 3 mg/Kg i.v. [1]: 44%
Percent Inhib. of PAF-induced Bronchoconstriction, 1 mg/Kg i.v. [2]: 86 ± 7%

O=C(/C=C/[C@@H]1CC1(c1cccc(F)c1)c1cccc(F)c1)NCCCCc1cccnc1 [[S-(E)]-3-[2,2-bis(3-Fluorophenyl)cyclopropyl]-N-[4-(3-pyridinyl)butyl]-2-propenamide]
IC50 (dog platelets): 0.024 µM
Percent Inhib. of PAF-induced Platelet Count Decrease, 30 mg/Kg p.o. ([1]; conscious guinea pig, 30 mg/Kg p.o., PAF 120 ng/kg i.v.): 66%
Percent Inhib. of PAF-induced Bronchoconstriction, 1 mg/Kg i.v. [2]: 90 ± 4%
Percent Inhib. of PAF-induced Bronchoconstriction, 50 mg/Kg p.o. [2]: 95 ± 79%

COc1cccc(C2(c3cccc(OC)c3)C[C@H]2/C=C/C(=O)NCCCCc2cccnc2)c1 [[S-(E)]-3-[2,2-bis(3-Methoxyphenyl)cyclopropyl]-N-[4-(3-pyridinyl)butyl]-2-propenamide]
IC50 (dog platelets): 0.036 µM
Percent Inhib. of PAF-induced Bronchoconstriction, 1 mg/Kg i.v. [2]: 25 ± 8%

O=C(/C=C/[C@@H]1CC1(c1ccc(F)cc1)c1ccc(F)cc1)NCCCCc1cccnc1 [[S-(E)]-3-[2,2-bis(4-Fluorophenyl)cyclopropyl]-N-[4-(3-pyridinyl)butyl]-2-propenamide]
IC50 (dog platelets): 0.025 µM
Percent Inhib. of PAF-induced Bronchoconstriction, 1 mg/Kg i.v. [2]: 33 ± 7%
Percent Inhib. of PAF-induced Bronchoconstriction, 50 mg/Kg p.o. [2]: 62 ± 13%
